# Data reported in patent US20240245682A1, “ALPHA-V-BETA-8 INTEGRIN INHIBITORS AND USES THEREOF” (Pliant Therapeutics, Inc., priority 2022, published 2024).
# Assays:
# Test in all cases: AlphaScreen proximity-based integrin binding assay with TGF-b1 LAP
# Details in all cases: values given as ranges
# [1] = target: human integrin αVβ1 (Homo sapiens, UniProt P05556+P06756)
# How it was run: (§1)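 Purified human integrin incubated with compound, TGF-b1 LAP, biotinylated anti-LAP antibody and acceptor beads for 2 h, then streptavidin donor beads 30 min, room temperature, in 50 mM Tris-HCl pH 7.5, 0.1% BSA, 1 mM CaCl2/MgCl2. AlphaScreen signal (680 nm excitation, 520-620 nm emission); IC50 by four-parameter fit.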
# [2] = target: human integrin αVβ8 (Homo sapiens, UniProt P06756+P26012)
# How it was run: as §1
# [3] = target: human integrin αVβ6 (Homo sapiens, UniProt P06756+P18564)
# How it was run: as §1
# Chain of human integrin αVβ8 (P06756 31-992 limits assumed): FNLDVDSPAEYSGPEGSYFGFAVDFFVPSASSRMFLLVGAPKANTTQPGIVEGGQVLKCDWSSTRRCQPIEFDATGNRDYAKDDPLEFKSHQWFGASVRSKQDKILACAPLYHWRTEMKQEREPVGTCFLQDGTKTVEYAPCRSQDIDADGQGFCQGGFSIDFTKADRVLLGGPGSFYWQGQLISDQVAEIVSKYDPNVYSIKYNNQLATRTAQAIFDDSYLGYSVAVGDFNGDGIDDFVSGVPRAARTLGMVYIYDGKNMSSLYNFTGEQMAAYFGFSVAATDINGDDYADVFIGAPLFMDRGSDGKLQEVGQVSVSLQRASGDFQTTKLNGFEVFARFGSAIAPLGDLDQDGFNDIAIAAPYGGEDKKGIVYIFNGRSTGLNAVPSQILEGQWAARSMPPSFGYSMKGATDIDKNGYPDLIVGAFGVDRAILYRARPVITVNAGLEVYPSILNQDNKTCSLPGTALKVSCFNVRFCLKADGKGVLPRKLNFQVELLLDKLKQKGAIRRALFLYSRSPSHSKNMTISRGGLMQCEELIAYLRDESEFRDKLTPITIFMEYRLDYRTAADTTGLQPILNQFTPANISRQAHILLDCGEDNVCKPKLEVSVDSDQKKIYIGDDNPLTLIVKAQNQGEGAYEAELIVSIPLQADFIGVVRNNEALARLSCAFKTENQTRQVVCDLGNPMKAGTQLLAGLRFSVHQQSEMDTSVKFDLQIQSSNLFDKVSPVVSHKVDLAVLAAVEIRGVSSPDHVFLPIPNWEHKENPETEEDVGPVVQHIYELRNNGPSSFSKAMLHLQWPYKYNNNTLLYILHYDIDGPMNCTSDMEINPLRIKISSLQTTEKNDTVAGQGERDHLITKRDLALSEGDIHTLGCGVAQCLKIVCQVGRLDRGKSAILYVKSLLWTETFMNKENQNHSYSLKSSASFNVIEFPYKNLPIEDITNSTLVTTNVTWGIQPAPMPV
# Chain of human integrin αVβ8 (P26012 43-684 limits assumed): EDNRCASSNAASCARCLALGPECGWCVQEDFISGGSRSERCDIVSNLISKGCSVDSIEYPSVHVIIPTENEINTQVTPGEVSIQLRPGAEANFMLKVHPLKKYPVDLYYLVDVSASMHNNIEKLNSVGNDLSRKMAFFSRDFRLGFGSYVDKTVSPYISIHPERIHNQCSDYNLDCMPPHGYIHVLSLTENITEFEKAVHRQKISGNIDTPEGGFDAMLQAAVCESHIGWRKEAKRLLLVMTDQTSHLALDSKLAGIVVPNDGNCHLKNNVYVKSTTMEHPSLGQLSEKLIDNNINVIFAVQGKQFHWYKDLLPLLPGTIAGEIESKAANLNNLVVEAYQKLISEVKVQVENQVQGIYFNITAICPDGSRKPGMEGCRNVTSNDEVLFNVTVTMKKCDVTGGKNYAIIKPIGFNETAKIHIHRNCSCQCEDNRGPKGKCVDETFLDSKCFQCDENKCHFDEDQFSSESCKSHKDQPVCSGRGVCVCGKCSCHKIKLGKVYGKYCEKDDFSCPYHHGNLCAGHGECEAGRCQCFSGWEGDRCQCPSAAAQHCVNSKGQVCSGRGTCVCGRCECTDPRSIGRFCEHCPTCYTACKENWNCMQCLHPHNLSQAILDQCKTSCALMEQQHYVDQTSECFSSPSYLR
# Chain of human integrin αVβ1 (P06756 31-992 limits assumed): as the sequence (P06756 31-992 limits assumed) above
# Chain of human integrin αVβ1 (P05556 21-728 limits assumed): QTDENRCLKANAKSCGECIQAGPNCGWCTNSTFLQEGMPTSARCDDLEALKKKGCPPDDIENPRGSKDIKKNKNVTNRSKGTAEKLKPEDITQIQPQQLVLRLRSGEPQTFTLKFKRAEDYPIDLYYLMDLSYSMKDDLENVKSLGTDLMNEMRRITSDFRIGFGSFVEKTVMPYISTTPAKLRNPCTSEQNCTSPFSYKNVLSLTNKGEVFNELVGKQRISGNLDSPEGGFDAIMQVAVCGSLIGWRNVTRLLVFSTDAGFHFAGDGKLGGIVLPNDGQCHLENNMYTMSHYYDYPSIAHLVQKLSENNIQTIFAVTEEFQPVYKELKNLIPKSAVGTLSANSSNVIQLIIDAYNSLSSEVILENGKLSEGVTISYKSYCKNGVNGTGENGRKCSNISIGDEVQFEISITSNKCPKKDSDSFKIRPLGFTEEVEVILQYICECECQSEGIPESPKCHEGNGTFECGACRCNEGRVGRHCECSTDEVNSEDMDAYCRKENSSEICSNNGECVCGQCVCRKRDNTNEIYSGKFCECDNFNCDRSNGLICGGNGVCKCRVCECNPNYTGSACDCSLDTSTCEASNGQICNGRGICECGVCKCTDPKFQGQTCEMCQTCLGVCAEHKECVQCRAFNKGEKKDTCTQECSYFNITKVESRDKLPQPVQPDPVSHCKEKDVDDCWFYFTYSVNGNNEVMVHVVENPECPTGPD
# Chain of human integrin αVβ6 (P06756 31-992 limits assumed): as the sequence (P06756 31-992 limits assumed) above
# Chain of human integrin αVβ6 (P18564 22-707 limits assumed): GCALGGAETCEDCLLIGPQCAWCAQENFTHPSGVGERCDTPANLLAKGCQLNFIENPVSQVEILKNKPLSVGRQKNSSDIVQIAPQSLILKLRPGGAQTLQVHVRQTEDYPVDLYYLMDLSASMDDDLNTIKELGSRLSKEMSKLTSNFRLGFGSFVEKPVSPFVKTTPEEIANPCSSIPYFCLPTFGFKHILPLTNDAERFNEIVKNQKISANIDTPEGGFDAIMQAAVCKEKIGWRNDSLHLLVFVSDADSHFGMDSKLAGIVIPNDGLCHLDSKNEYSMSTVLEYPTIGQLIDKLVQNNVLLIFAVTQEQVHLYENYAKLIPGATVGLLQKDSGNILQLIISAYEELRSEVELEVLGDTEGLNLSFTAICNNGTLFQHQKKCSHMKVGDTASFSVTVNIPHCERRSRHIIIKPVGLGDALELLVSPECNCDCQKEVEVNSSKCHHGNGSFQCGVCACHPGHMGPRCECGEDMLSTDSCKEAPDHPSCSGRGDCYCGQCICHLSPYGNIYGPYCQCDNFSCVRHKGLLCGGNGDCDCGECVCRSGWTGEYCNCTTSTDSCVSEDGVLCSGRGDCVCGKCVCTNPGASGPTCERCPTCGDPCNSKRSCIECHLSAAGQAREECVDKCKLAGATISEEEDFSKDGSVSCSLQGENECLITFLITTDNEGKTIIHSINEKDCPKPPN
Compound,IC50 [1],IC50 [2],IC50 [3]
"CC(C)(C(=O)N[C@@H](CCOCCCCc1ccc2c(n1)NCCC2)C(=O)O)c1ccccc1 [Compound 2, N-(2-methyl-2-phenylpropanoyl)-O-(4-(5,6,7,8-tetrahydro-1,8-naphthyridin-2-yl)butyl)-L-homoserine]",< 0.05 µM,0.05 to 0.15 µM,≥ 0.5 µM
"O=C(O)[C@H](CCOCCCCc1ccc2c(n1)NCCC2)NC(=O)C1(c2cccnc2C(F)F)CC1 [Compound 57, N-(1-(2-(difluoromethyl)pyridin-3-yl)cyclopropane-1-carbonyl)-O-(4-(5,6,7,8-tetrahydro-1,8-naphthyridin-2-yl)butyl)-L-homoserine]",< 0.05 µM,0.05 to 0.15 µM,≥ 0.5 µM
"Cc1cc(Cl)n(C2(C(=O)N[C@@H](CCOCCCCc3ccc4c(n3)NCCC4)C(=O)O)CC2)n1 [Compound 72, N-(1-(5-chloro-3-methyl-1H-pyrazol-1-yl)cyclopropane-1-carbonyl)-O-(4-(5,6,7,8-tetrahydro-1,8-naphthyridin-2-yl)butyl)-L-homoserine]",< 0.05 µM,< 0.05 µM,≥ 0.5 µM
"Cc1ncnc(O)c1C1(C(=O)N[C@@H](CCOCCCCc2ccc3c(n2)NCCC3)C(=O)O)CC1 [Compound 102, N-(1-(4-hydroxy-6-methylpyrimidin-5-yl)cyclopropane-1-carbonyl)-O-(4-(5,6,7,8-tetrahydro-1,8-naphthyridin-2-yl)butyl)-L-homoserine]",0.05 to 0.15 µM,0.05 to 0.15 µM,> 0.5 µM
"O=C(O)[C@H](CCOCCCCc1ccc2c(n1)NCCC2)NC(=O)C1(c2ncccc2Cl)CC1 [Compound 15, N-(1-(3-chloropyridin-2-yl)cyclopropane-1-carbonyl)-O-(4-(5,6,7,8-tetrahydro-1,8-naphthyridin-2-yl)butyl)-L-homoserine]",< 0.05 µM,< 0.05 µM,≥ 0.5 µM
"Cc1cnc(C2(C(=O)N[C@@H](CCOCCCCc3ccc4c(n3)NCCC4)C(=O)O)CC2)c(Cl)c1 [Compound 36, N-(1-(3-chloro-5-methylpyridin-2-yl)cyclopropane-1-carbonyl)-O-(4-(5,6,7,8-tetrahydro-1,8-naphthyridin-2-yl)butyl)-L-homoserine]",< 0.05 µM,< 0.05 µM,≥ 0.5 µM
"Cc1ncc(F)cc1C1(C(=O)N[C@@H](CCOCCCCc2ccc3c(n2)NCCC3)C(=O)O)CC1 [Compound 28, N-(1-(5-fluoro-2-methylpyridin-3-yl)cyclopropane-1-carbonyl)-O-(4-(5,6,7,8-tetrahydro-1,8-naphthyridin-2-yl)butyl)-L-homoserine]",< 0.05 µM,< 0.05 µM,≥ 0.5 µM
"Cc1cncc(F)c1C1(C(=O)N[C@@H](CCOCCCCc2ccc3c(n2)NCCC3)C(=O)O)CC1 [Compound 47, N-(1-(3-fluoro-5-methylpyridin-4-yl)cyclopropane-1-carbonyl)-O-(4-(5,6,7,8-tetrahydro-1,8-naphthyridin-2-yl)butyl)-L-homoserine]",< 0.05 µM,< 0.05 µM,0.25 to 0.5 µM
"COc1cccc(C#N)c1C1(C(=O)N[C@@H](CCOCCCCc2ccc3c(n2)NCCC3)C(=O)O)CC1 [Compound 56, N-(1-(2-cyano-6-methoxyphenyl)cyclopropane-1-carbonyl)-O-(4-(5,6,7,8-tetrahydro-1,8-naphthyridin-2-yl)butyl)-L-homoserine]",0.05 to 0.15 µM,< 0.05 µM,≥ 0.5 µM
"O=C(N[C@@H](CCOCCCCc1ccc2c(n1)NCCC2)C(=O)O)c1cnn(-c2ccccc2)c1 [Compound 98, N-(1-phenyl-1H-pyrazole-4-carbonyl)-O-(4-(5,6,7,8-tetrahydro-1,8-naphthyridin-2-yl)butyl)-L-homoserine]",0.05 to 0.15 µM,0.25 to 0.5 µM,> 0.5 µM
"O=C(O)[C@H](CCOCCCCc1ccc2c(n1)NCCC2)NC(=O)C1(c2c(Cl)cncc2Cl)CC1 [Compound 24, N-(1-(3,5-dichloropyridin-4-yl)cyclopropane-1-carbonyl)-O-(4-(5,6,7,8-tetrahydro-1,8-naphthyridin-2-yl)butyl)-L-homoserine]",< 0.05 µM,< 0.05 µM,0.05 to 0.15 µM
"O=C(O)[C@H](CCOCCCCc1ccc2c(n1)NCCC2)NC(=O)C1(c2nccnc2C(F)(F)F)CC1 [Compound 67, O-(4-(5,6,7,8-tetrahydro-1,8-naphthyridin-2-yl)butyl)-N-(1-(3-(trifluoromethyl)pyrazin-2-yl)cyclopropane-1-carbonyl)-L-homoserine]",< 0.05 µM,< 0.05 µM,≥ 0.5 µM

# The next lines start with the values.
IC50 [1],IC50 [2],IC50 [3],Compound
< 0.05 µM,< 0.05 µM,≥ 0.5 µM,"O=C(O)[C@H](CCOCCCCc1ccc2c(n1)NCCC2)NC(=O)C1(c2ncccc2CF)CC1 [Compound 52, N-(1-(3-(fluoromethyl)pyridin-2-yl)cyclopropane-1-carbonyl)-O-(4-(5,6,7,8-tetrahydro-1,8-naphthyridin-2-yl)butyl)-L-homoserine]"
< 0.05 µM,< 0.05 µM,≥ 0.5 µM,"N#Cc1cccnc1C1(C(=O)N[C@@H](CCOCCCCc2ccc3c(n2)NCCC3)C(=O)O)CC1 [Compound 32, N-(1-(3-cyanopyridin-2-yl)cyclopropane-1-carbonyl)-O-(4-(5,6,7,8-tetrahydro-1,8-naphthyridin-2-yl)butyl)-L-homoserine]"
< 0.05 µM,< 0.05 µM,≥ 0.5 µM,"O=C(O)[C@H](CCOCCCCc1ccc2c(n1)NCCC2)NC(=O)C1(c2ncccc2C(F)(F)F)CC1 [Compound 25, O-(4-(5,6,7,8-tetrahydro-1,8-naphthyridin-2-yl)butyl)-N-(1-(3-(trifluoromethyl)pyridin-2-yl)cyclopropane-1-carbonyl)-L-homoserine]"
< 0.05 µM,< 0.05 µM,0.05 to 0.15 µM,"O=C(O)[C@H](CCOCCCCc1ccc2c(n1)NCCC2)NC(=O)C1(C(F)(F)F)CCOCC1 [Compound 100, O-(4-(5,6,7,8-tetrahydro-1,8-naphthyridin-2-yl)butyl)-N-(4-(trifluoromethyl)tetrahydro-2H-pyran-4-carbonyl)-L-homoserine]"
< 0.05 µM,< 0.05 µM,≥ 0.5 µM,"Cn1cc(C(F)(F)F)c(C2(C(=O)N[C@@H](CCOCCCCc3ccc4c(n3)NCCC4)C(=O)O)CC2)n1 [Compound 77, N-(1-(1-methyl-4-(trifluoromethyl)-1H-pyrazol-3-yl)cyclopropane-1-carbonyl)-O-(4-(5,6,7,8-tetrahydro-1,8-naphthyridin-2-yl)butyl)-L-homoserine]"
< 0.05 µM,< 0.05 µM,> 0.5 µM,"COc1cccc(C2(C(=O)N[C@@H](CCOCCCCc3ccc4c(n3)NCCC4)C(=O)O)CCOCC2)c1 [Compound 87, N-(4-(3-methoxyphenyl)tetrahydro-2H-pyran-4-carbonyl)-O-(4-(5,6,7,8-tetrahydro-1,8-naphthyridin-2-yl)butyl)-L-homoserine]"
< 0.05 µM,0.05 to 0.15 µM,≥ 0.5 µM,"CC(C)(C(=O)N[C@@H](CCOCCCCc1ccc2c(n1)NCCC2)C(=O)O)c1ccccc1Cl [Compound 8, N-(2-(2-chlorophenyl)-2-methylpropanoyl)-O-(4-(5,6,7,8-tetrahydro-1,8-naphthyridin-2-yl)butyl)-L-homoserine]"
0.05 to 0.15 µM,0.15 to 0.25 µM,≥ 0.5 µM,"COc1ccc(F)c(F)c1C(C)(C)C(=O)N[C@@H](CCOCCCCc1ccc2c(n1)NCCC2)C(=O)O [Compound 4, N-(2-(2,3-difluoro-6-methoxyphenyl)-2-methylpropanoyl)-O-(4-(5,6,7,8-tetrahydro-1,8-naphthyridin-2-yl)butyl)-L-homoserine]"
< 0.05 µM,< 0.05 µM,≥ 0.5 µM,"O=C(O)[C@H](CCOCCCCc1ccc2c(n1)NCCC2)NC(=O)C1(c2cncnc2C(F)(F)F)CC1 [Compound 48, O-(4-(5,6,7,8-tetrahydro-1,8-naphthyridin-2-yl)butyl)-N-(1-(4-(trifluoromethyl)pyrimidin-5-yl)cyclopropane-1-carbonyl)-L-homoserine]"
< 0.05 µM,< 0.05 µM,≥ 0.5 µM,"Cc1ncc(Cl)c(C2(C(=O)N[C@@H](CCOCCCCc3ccc4c(n3)NCCC4)C(=O)O)CC2)n1 [Compound 73, N-(1-(5-chloro-2-methylpyrimidin-4-yl)cyclopropane-1-carbonyl)-O-(4-(5,6,7,8-tetrahydro-1,8-naphthyridin-2-yl)butyl)-L-homoserine]"
0.05 to 0.15 µM,0.25 to 0.5 µM,≥ 0.5 µM,"CS(=O)(=O)c1ccccc1C1(C(=O)N[C@@H](CCOCCCCc2ccc3c(n2)NCCC3)C(=O)O)CC1 [Compound 46, N-(1-(2-(methylsulfonyl)phenyl)cyclopropane-1-carbonyl)-O-(4-(5,6,7,8-tetrahydro-1,8-naphthyridin-2-yl)butyl)-L-homoserine]"
0.05 to 0.15 µM,< 0.05 µM,≥ 0.5 µM,"COc1cccc(C2(C(=O)N[C@@H](CCOCCCCc3ccc4c(n3)NCCC4)C(=O)O)CC2)n1 [Compound 18, N-(1-(6-methoxypyridin-2-yl)cyclopropane-1-carbonyl)-O-(4-(5,6,7,8-tetrahydro-1,8-naphthyridin-2-yl)butyl)-L-homoserine]"
< 0.05 µM,< 0.05 µM,≥ 0.5 µM,"O=C(O)[C@H](CCOCCCCc1ccc2c(n1)NCCC2)NC(=O)C1(c2ncnc3ccccc23)CC1 [Compound 31, N-(1-(quinazolin-4-yl)cyclopropane-1-carbonyl)-O-(4-(5,6,7,8-tetrahydro-1,8-naphthyridin-2-yl)butyl)-L-homoserine]"
< 0.05 µM,0.05 to 0.15 µM,≥ 0.5 µM,"Cn1nccc1C1(C(=O)N[C@@H](CCOCCCCc2ccc3c(n2)NCCC3)C(=O)O)CC1 [Compound 54, N-(1-(1-methyl-1H-pyrazol-5-yl)cyclopropane-1-carbonyl)-O-(4-(5,6,7,8-tetrahydro-1,8-naphthyridin-2-yl)butyl)-L-homoserine]"
